# Reference: ChEMBL document CHEMBL4665869, “New thiazolopyrimidine as anticancer agents: Synthesis, biological evaluation, DNA binding, molecular modeling and ADMET study” (Bioorg Med Chem Lett, 2020)
# Key:
# IGROV-1 = experiment: Growth inhibition of human IGROV-1 cells at 10 uM relative to control; type: functional; settings: read-out: GI
# SN12C = experiment: Growth inhibition of human SN12C cells at 10 uM relative to control; type: functional; settings: read-out: GI
# U-251 = experiment: Growth inhibition of human U-251 cells at 10 uM relative to control; type: functional; settings: read-out: GI
# M14 = experiment: Growth inhibition of human M14 cells at 10 uM relative to control; type: functional; settings: read-out: GI
# RPMI-8226 = experiment: Growth inhibition of human RPMI-8226 cells at 10 uM relative to control; type: functional; settings: read-out: GI
# SK-MEL-28 = experiment: Growth inhibition of human SK-MEL-28 cells at 10 uM relative to control; type: functional; settings: read-out: GI
# HL-60(TB) = experiment: Growth inhibition of human HL-60(TB) cells at 10 uM relative to control; type: functional; settings: read-out: GI
# UO-31 = experiment: Growth inhibition of human UO-31 cells at 10 uM relative to control; type: functional; settings: read-out: GI
# Malme-3M = experiment: Growth inhibition of human Malme-3M cells at 10 uM relative to control; type: functional; settings: read-out: GI
# SNB-75 = experiment: Growth inhibition of human SNB-75 cells at 10 uM relative to control; type: functional; settings: read-out: GI
# NCI-H226 = experiment: Growth inhibition of human NCI-H226 cells at 10 uM relative to control; type: functional; settings: read-out: GI
# A549 = experiment: Growth inhibition of human A549 cells at 10 uM relative to control; type: functional; settings: read-out: GI
# NCI-H522 = experiment: Growth inhibition of human NCI-H522 cells at 10 uM relative to control; type: functional; settings: read-out: GI
# HCT-116 = experiment: Growth inhibition of human HCT-116 cells at 10 uM relative to control; type: functional; settings: read-out: GI
# LOX IMVI = experiment: Growth inhibition of human LOX IMVI cells at 10 uM relative to control; type: functional; settings: read-out: GI
# HOP-92 = experiment: Growth inhibition of human HOP-92 cells at 10 uM relative to control; type: functional; settings: read-out: GI
# SF-295 = experiment: Growth inhibition of human SF-295 cells at 10 uM relative to control; type: functional; settings: read-out: GI
# ACHN = experiment: Growth inhibition of human ACHN cells at 10 uM relative to control; type: functional; settings: read-out: GI
# CCRF-CEM = experiment: Growth inhibition of human CCRF-CEM cells at 10 uM relative to control; type: functional; settings: read-out: GI
# PC-3 = experiment: Growth inhibition of human PC-3 cells at 10 uM relative to control; type: functional; settings: read-out: GI
# K562 = experiment: Growth inhibition of human K562 cells at 10 uM relative to control; type: functional; settings: read-out: GI
# SR = experiment: Growth inhibition of human SR cells at 10 uM relative to control; type: functional; settings: read-out: GI
# HCT-15 = experiment: Growth inhibition of human HCT-15 cells at 10 uM relative to control; type: functional; settings: read-out: GI
# NCI-H23 = experiment: Growth inhibition of human NCI-H23 cells at 10 uM relative to control; type: functional; settings: read-out: GI
# COLO 205 = experiment: Growth inhibition of human COLO 205 cells at 10 uM relative to control; type: functional; settings: read-out: GI
# SK-OV-3 = experiment: Growth inhibition of human SK-OV-3 cells at 10 uM relative to control; type: functional; settings: read-out: GI
# DNA = experiment: Displacement of methyl green from DNA (unknown origin) assessed as DNA intercalation after 24 hrs by colorimetric assay; type: nucleic-acid assay
# HOP-62 = experiment: Growth inhibition of human HOP-62 cells at 10 uM relative to control; type: functional; settings: read-out: GI
# OVCAR-5 = experiment: Growth inhibition of human OVCAR-5 cells at 10 uM relative to control; type: functional; settings: read-out: GI
# NCI-H460 = experiment: Growth inhibition of human NCI-H460 cells at 10 uM relative to control; type: functional; settings: read-out: GI
# Hs-578T = experiment: Growth inhibition of human Hs-578T cells at 10 uM relative to control; type: functional; settings: read-out: GI
# MDA-MB-468 = experiment: Growth inhibition of human MDA-MB-468 cells at 10 uM relative to control; type: functional; settings: read-out: GI
# DU-145 = experiment: Growth inhibition of human DU-145 cells at 10 uM relative to control; type: functional; settings: read-out: GI
# NCI/ADR-RES = experiment: Growth inhibition of human NCI/ADR-RES cells at 10 uM relative to control; type: functional; settings: read-out: GI
# 786-0 = experiment: Growth inhibition of human 786-0 cells at 10 uM relative to control; type: functional; settings: read-out: GI
# SK-MEL-5 = experiment: Growth inhibition of human SK-MEL-5 cells at 10 uM relative to control; type: functional; settings: read-out: GI
# SW-620 = experiment: Growth inhibition of human SW-620 cells at 10 uM relative to control; type: functional; settings: read-out: GI
# NCI-H322M = experiment: Growth inhibition of human NCI-H322M cells at 10 uM relative to control; type: functional; settings: read-out: GI
# UACC-257 = experiment: Growth inhibition of human UACC-257 cells at 10 uM relative to control; type: functional; settings: read-out: GI
# KM12 = experiment: Growth inhibition of human KM12 cells at 10 uM relative to control; type: functional; settings: read-out: GI
# CAKI-1 = experiment: Growth inhibition of human CAKI-1 cells at 10 uM relative to control; type: functional; settings: read-out: GI
# MCF7 = experiment: Growth inhibition of human MCF7 cells at 10 uM relative to control; type: functional; settings: read-out: GI
# OVCAR-4 = experiment: Growth inhibition of human OVCAR-4 cells at 10 uM relative to control; type: functional; settings: read-out: GI
# SK-MEL-2 = experiment: Growth inhibition of human SK-MEL-2 cells at 10 uM relative to control; type: functional; settings: read-out: GI
# A498 = experiment: Growth inhibition of human A498 cells at 10 uM relative to control; type: functional; settings: read-out: GI
# TK-10 = experiment: Growth inhibition of human TK-10 cells at 10 uM relative to control; type: functional; settings: read-out: GI
# SNB-19 = experiment: Growth inhibition of human SNB-19 cells at 10 uM relative to control; type: functional; settings: read-out: GI
# BT-549 = experiment: Growth inhibition of human BT-549 cells at 10 uM relative to control; type: functional; settings: read-out: GI
# RXF 393 = experiment: Growth inhibition of human RXF 393 cells at 10 uM relative to control; type: functional; settings: read-out: GI
# OVCAR-8 = experiment: Growth inhibition of human OVCAR-8 cells at 10 uM relative to control; type: functional; settings: read-out: GI
# HCC 2998 = experiment: Growth inhibition of human HCC 2998 cells at 10 uM relative to control; type: functional; settings: read-out: GI
# UACC-62 = experiment: Growth inhibition of human UACC-62 cells at 10 uM relative to control; type: functional; settings: read-out: GI
# MOLT-4 = experiment: Growth inhibition of human MOLT-4 cells at 10 uM relative to control; type: functional; settings: read-out: GI
# T47D = experiment: Growth inhibition of human T47D cells at 10 uM relative to control; type: functional; settings: read-out: GI
# MDA-MB-435 = experiment: Growth inhibition of human MDA-MB-435 cells at 10 uM relative to control; type: functional; settings: read-out: GI
# SF-539 = experiment: Growth inhibition of human SF-539 cells at 10 uM relative to control; type: functional; settings: read-out: GI
# MDA-MB-231 = experiment: Growth inhibition of human MDA-MB-231 cells at 10 uM relative to control; type: functional; settings: read-out: GI
# HT-29 = experiment: Growth inhibition of human HT-29 cells at 10 uM relative to control; type: functional; settings: read-out: GI
# SF-268 = experiment: Growth inhibition of human SF-268 cells at 10 uM relative to control; type: functional; settings: read-out: GI
smiles,measurement,setting,value
CCOC(=O)C1=CSC2=NC(/C=C/c3ccc(OC)c(OC)c3)=CC(c3ccc(OC)c(OC)c3)N12 (centres undefined),inhibition of growth at 10 µM,IGROV-1,< 10%
same,inhibition of growth at 10 µM,SN12C,< 10%
same,inhibition of growth at 10 µM,U-251,< 10%
same,inhibition of growth at 10 µM,M14,< 10%
same,inhibition of growth at 10 µM,RPMI-8226,< 10%
same,inhibition of growth at 10 µM,SK-MEL-28,< 10%
same,inhibition of growth at 10 µM,HL-60(TB),< 10%
same,inhibition of growth at 10 µM,UO-31,20.2%
same,inhibition of growth at 10 µM,Malme-3M,< 10%
same,inhibition of growth at 10 µM,SNB-75,25.3%
same,inhibition of growth at 10 µM,NCI-H226,< 10%
same,inhibition of growth at 10 µM,A549,< 10%
same,inhibition of growth at 10 µM,NCI-H522,12%
same,inhibition of growth at 10 µM,HCT-116,< 10%
same,inhibition of growth at 10 µM,LOX IMVI,< 10%
same,inhibition of growth at 10 µM,HOP-92,39.5%
same,inhibition of growth at 10 µM,SF-295,< 10%
same,inhibition of growth at 10 µM,ACHN,12.8%
same,inhibition of growth at 10 µM,CCRF-CEM,< 10%
same,inhibition of growth at 10 µM,PC-3,11.3%
same,inhibition of growth at 10 µM,K562,< 10%
same,inhibition of growth at 10 µM,SR,< 10%
same,inhibition of growth at 10 µM,HCT-15,< 10%
same,inhibition of growth at 10 µM,NCI-H23,< 10%
same,inhibition of growth at 10 µM,COLO 205,< 10%
same,inhibition of growth at 10 µM,SK-OV-3,< 10%
same,IC50,DNA,29.86 µg/mL
same,inhibition of growth at 10 µM,HOP-62,< 10%
same,inhibition of growth at 10 µM,OVCAR-5,< 10%
same,inhibition of growth at 10 µM,NCI-H460,< 10%
same,inhibition of growth at 10 µM,Hs-578T,< 10%
same,inhibition of growth at 10 µM,MDA-MB-468,< 10%
same,inhibition of growth at 10 µM,DU-145,< 10%
same,inhibition of growth at 10 µM,NCI/ADR-RES,< 10%
same,inhibition of growth at 10 µM,786-0,< 10%
same,inhibition of growth at 10 µM,SK-MEL-5,< 10%
same,inhibition of growth at 10 µM,SW-620,< 10%
same,inhibition of growth at 10 µM,NCI-H322M,< 10%
same,inhibition of growth at 10 µM,UACC-257,< 10%
same,inhibition of growth at 10 µM,KM12,< 10%
same,inhibition of growth at 10 µM,CAKI-1,< 10%
same,inhibition of growth at 10 µM,MCF7,< 10%
same,inhibition of growth at 10 µM,OVCAR-4,< 10%
same,inhibition of growth at 10 µM,SK-MEL-2,< 10%
same,inhibition of growth at 10 µM,A498,< 10%
same,inhibition of growth at 10 µM,TK-10,< 10%
same,inhibition of growth at 10 µM,SNB-19,< 10%
same,inhibition of growth at 10 µM,BT-549,< 10%
same,inhibition of growth at 10 µM,RXF 393,< 10%
same,inhibition of growth at 10 µM,OVCAR-8,< 10%
same,inhibition of growth at 10 µM,HCC 2998,< 10%
same,inhibition of growth at 10 µM,UACC-62,< 10%
same,inhibition of growth at 10 µM,MOLT-4,< 10%
same,inhibition of growth at 10 µM,T47D,< 10%
same,inhibition of growth at 10 µM,MDA-MB-435,< 10%
same,inhibition of growth at 10 µM,SF-539,< 10%
same,inhibition of growth at 10 µM,MDA-MB-231,< 10%
same,inhibition of growth at 10 µM,HT-29,< 10%
same,inhibition of growth at 10 µM,SF-268,< 10%
